# According to article PMC9877462, “Real time monitoring and evaluation of the inhibition effect of fucoxanthin against α-amylase activity by using QCM-A” (Frontiers in Nutrition, 2023):
# Target: T1, α-amylase (from human saliva, EC 3.2.1.1) (Homo sapiens, UniProt P0DUB6)
# T1 construct: gene AMY1A
# T1 sequence (P0DUB6 16-511): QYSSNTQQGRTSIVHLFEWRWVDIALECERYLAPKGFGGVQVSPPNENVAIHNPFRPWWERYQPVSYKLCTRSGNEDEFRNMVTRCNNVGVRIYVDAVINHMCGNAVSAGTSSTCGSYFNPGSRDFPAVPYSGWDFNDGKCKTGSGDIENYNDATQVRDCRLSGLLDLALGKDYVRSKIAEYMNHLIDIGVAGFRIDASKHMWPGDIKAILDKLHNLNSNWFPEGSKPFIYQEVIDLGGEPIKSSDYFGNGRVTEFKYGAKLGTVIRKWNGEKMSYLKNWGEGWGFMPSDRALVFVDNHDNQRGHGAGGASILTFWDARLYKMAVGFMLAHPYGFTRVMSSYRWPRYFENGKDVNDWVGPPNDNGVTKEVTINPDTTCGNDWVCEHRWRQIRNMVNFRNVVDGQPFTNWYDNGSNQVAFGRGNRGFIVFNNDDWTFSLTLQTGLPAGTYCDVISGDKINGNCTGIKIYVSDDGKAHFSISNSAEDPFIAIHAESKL
# Assay: Enzyme inhibition kinetics (Lineweaver-Burk and Dixon plots) with amylose substrate; amylose-immobilized QCM-A hydrolysis assay
# Assay type: biochemical
structure (smiles),measurement,value
CC(=O)O[C@H]1CC(C)(C)C(=C=C/C(C)=C/C=C/C(C)=C/C=C/C=C(C)/C=C/C=C(\C)C(=O)C[C@@]23O[C@]2(C)C[C@@H](O)CC3(C)C)[C@](C)(O)C1 [fucoxanthin],Ki,36.3 µM
